According to patent US8653111B2, “Substituted dihydropyrazolones for treating cardiovascular and hematological diseases” (Bayer Intellectual Property GmbH, priority 2006, dated 2014):
Counter-ions that a name gives are not always drawn.

target: HIF prolyl hydroxylase; experiment: Inhibition of the activity of HIF prolyl hydroxylase (VBC complex binding to hydroxylated peptide substrate); format: biochemical; conditions: cell lysate containing prolyl hydroxylase, peptide biotin-DLDLEMLAPYIPMDDDFQL as substrate
Description: 1. In vitro Tests for Determination of the Activity and Selectivity of HIF Prolyl 4-Hydroxylase Inhibitors 1.a) Inhibition of the Activity of HIF Prolyl Hydroxylase:
Hydroxylated HIF bonds specifically to the von Hippel-Lindau protein-elongin B-elongin C complex (VBC complex). This interaction occurs only if HIF is hydroxylated on a conserved prolyl radical. It is the basis for the biochemical determination of HIF prolyl hydroxylase activity. The test is carried out as described [Oehme F., Jonghaus W., Narouz-Ott L., Huetter J., Flamme I., Anal. Biochem. 330 (1), 74-80 (2004)]:
A clear 96-well microtiter plate coated with NeutrAvidin HBC (Pierce) is incubated with blocker casein for 30 minutes. The plate is then washed three times with 200 μl each time of wash buffer (50 mM Tris, pH 7.5, 100 mM NaCl, 10% (v/v) blocker casein, 0.05% (v/v) Tween 20) per well. The peptide biotin-DLDLEMLAPYIPMDDDFQL (Eurogentec, 4102 Seraing, Belgium) is added in a concentration of 400 nM in 100 μl wash buffer. This peptide serves as a substrate for the prolyl hydroxylation and is bonded to the microtiter plate. After incubation for 60 minutes, the plate is washed three times with wash buffer, incubated with 1 mM biotin in blocker casein for 30 minutes and then washed again three times with wash buffer.
To carry out the prolyl hydroxylase reaction, the peptide substrate bonded to the plate is incubated with a cell lysate containing prolyl hydroxylase for 1 to 60 minutes. The reaction takes place in 100 μl reaction buffer (20 mM Tris, pH 7.5, 5 mM KCl, 1.5 mM MgCl2, 1 μM-1 mM 2-oxoglutarate, 10 μM FeSO4, 2 mM ascorbate) at room temperature. The reaction mixture moreover contains various concentrations of the prolyl hydroxylase inhibitor to be tested. The test substance is preferably, but not exclusively, employed at concentrations of between 1 nM and 100 μM. The reaction is stopped by washing the plate three times with wash buffer.
For quantitative determination of the prolyl hydroxylation, a fusion protein which contains both thioredoxin from E. coli and the VBC complex in 80 μl bonding buffer (50 mM Tris, pH 7.5, 120 mM NaCl) is added. After 15 minutes, 10 μl of a solution of polyclonal anti-thioredoxin antibodies from rabbit in bonding buffer are added. After a further 30 minutes, 10 μl of a solution of anti-rabbit immunoglobulin coupled to horseradish peroxidase in bonding buffer are added. After incubation at room temperature for 30 minutes, the plate is washed three times with wash buffer in order to remove non-bonded VBC complex and antibodies. To determine the amount of bonded VBC complex, the plate is incubated with TMB for 15 minutes. The color reaction is ended by addition of 100 μl 1 M sulfuric acid. The amount of bonded VBC complex is determined by measurement of the optical density at 450 nm. It is proportional to the amount of hydroxylated proline in the peptide substrate.
Alternatively, a VBC complex coupled to europium (Perkin Elmer) can be used for detection of the prolyl hydroxylation. In this case, the amount of bonded VBC complex is determined by the fluorescence with respect to time. The use of VBC complex labeled with [^35S]-methionine is moreover possible. For this, the radioactively labeled VBC complex can be prepared by in vitro transcription-translation in reticulocyte lysate.

SMILES	IC50
Cc1cc(-n2[nH]cc(-n3ccnn3)c2=O)ncc1Br [Example 61]	1100 nM
Cc1cc(-c2c[nH]n(-c3ccccn3)c2=O)on1 [Example 50]	1400 nM
Cc1ccnc(-n2[nH]cc(-n3ccnn3)c2=O)c1 [Example 7, 2-(4-Methylpyridin-2-yl)-4-(1H-1,2,3-triazol-1-yl)-1,2-dihydro-3H-pyrazol-3-one hydrochloride]	340 nM
COC1CCCN(c2cc(-n3[nH]cc(-n4ccnc4)c3=O)ncn2)C1 (centres unmarked) [Example 166]	690 nM
O=c1c(-n2ccnn2)c[nH]n1-c1cc(C2CC2)ncn1 [Example 17, 2-(6-Cyclopropylpyrimidin-4-yl)-4-(1H-1,2,3-triazol-1-yl)-1,2-dihydro-3H-pyrazol-3-one hydrochloride]	560 nM
O=c1c(-n2ccnn2)c[nH]n1-c1cc(N2CCSCC2)ncn1 [Example 113]	740 nM
CC(C)c1cn(-c2c[nH]n(-c3ccc(CO)cn3)c2=O)nn1 [Example 45]	780 nM
CCc1cc(-n2[nH]cc(-n3cnc(C(F)(F)F)c3)c2=O)ncn1 [Example 60]	1400 nM
CCSc1cc(-n2[nH]cc(-n3ccnn3)c2=O)ncn1 [Example 103, 2-[6-(Ethylsulfanyl)pyrimidin-4-yl]-4-(1H-1,2,3-triazol-1-yl)-1,2-dihydro-3H-pyrazol-3-one hydrochloride]	350 nM
O=c1c(-n2ccnc2)c[nH]n1-c1cc(N2CC(O)C2)ncn1 [Example 101, 2-[6-(3-Hydroxyazetidin-1-yl)pyrimidin-4-yl]-4-(1H-imidazol-1-yl)-1,2-dihydro-3H-pyrazol-3-one hydrochloride]	1700 nM
CC(C)(C)COc1ccc(-n2[nH]cc(-n3ccnn3)c2=O)nc1 [Example 85, 2-[5-(2,2-Dimethylpropoxy)pyridin-2-yl]-4-(1H-1,2,3-triazol-1-yl)-1,2-dihydro-3H-pyrazol-3-one hydrochloride]	190 nM
O=c1c(-c2nnc(C(F)(F)F)s2)c[nH]n1-c1ccccn1 [Example 5]	1200 nM
CC(C)(C)OC(=O)c1ccc(-n2[nH]cc(-n3ccnn3)c2=O)nc1 [Example 62, 6-[5-Oxo-4-(1H-1,2,3-triazol-1-yl)-2,5-dihydro-1H-pyrazol-1-yl]pyridine-3-carboxylic acid tert-butyl ester hydrochloride]	50 nM
O=c1c(-n2ccnn2)c[nH]n1-c1cc(N2CCOCC2)ncn1 [Example 72, 2-(6-Morpholin-4-ylpyrimidin-4-yl)-4-(1H-1,2,3-triazol-1-yl)-1,2-dihydro-3H-pyrazol-3-one hydrochloride]	490 nM
Cc1cn(-c2c[nH]n(-c3cnccn3)c2=O)nn1 [Example 43]	1800 nM
CC1CCN(c2cc(-n3[nH]cc(-n4ccnn4)c3=O)ncn2)CC1 [Example 129]	360 nM
O=c1c(-n2cnc(C(F)(F)F)c2)c[nH]n1-c1ccc(CO)cn1 [Example 12, 2-[5-(Hydroxymethyl)pyridin-2-yl]-4-[4-(trifluoromethyl)-1H-imidazol-1-yl]-1,2-dihydro-3H-pyrazol-3-one]	750 nM
Cc1cnc(-n2[nH]cc(-n3ccnc3)c2=O)cc1C [Example 91, 2-(4,5-Dimethylpyridin-2-yl)-4-(1H-imidazol-1-yl)-1,2-dihydro-3H-pyrazol-3-one hydrochloride]	2800 nM
O=c1c(-n2ccnn2)c[nH]n1-c1cc(C(F)(F)F)ccn1 [Example 83, 4-(1H-1,2,3-Triazol-1-yl)-2-[4-(trifluoromethyl)pyridin-2-yl]-1,2-dihydro-3H-pyrazol-3-one hydrochloride]	1900 nM
O=c1c(-n2ccnc2)c[nH]n1-c1cc(N2CCCCC2)ncn1 [Example 10, 4-(1H-Imidazol-1-yl)-2-(6-piperidin-1-ylpyrimidin-4-yl)-1,2-dihydro-3H-pyrazol-3-one]	500 nM
